Measurements reported in PubChem BioAssay AID330 (DTP/NCI, 2004).
“And” between values parts separate entries of the source, which are not always exact repeats. Identical values can stand only once. Toxic doses and inconclusive results are not listed. Peptide text beside a SMILES is read from it.

System: P388 leukemia ip, CD2F1 mice, survival T/C
Assay: NCI In Vivo Anticancer Drug Screen. Data for tumor model P388 Leukemia (intraperitoneal) in CD2F1 (CDF1) mice
Details: endpoint: median survival time, higher = longer survival
Procedure, shortened: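 Mice carrying the transplanted tumor received test compound or vehicle. Survival was recorded in each group, and the value is the treated-group measurement divided by that of the vehicle-treated control group.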

[1] = dose: 25.0 mg/kg/injection, schedule: Q01DX009 (ip), vehicle: saline
[2] = dose: 50.0 mg/kg/injection, schedule: Q01DX009 (ip), vehicle: saline
[3] = dose: 60.0 mg/kg/injection, schedule: Q01DX005 (ip), vehicle: saline with Tween-80
[4] = dose: 120.0 mg/kg/injection, schedule: Q01DX005 (ip), vehicle: saline with Tween-80
[5] = dose: 240.0 mg/kg/injection, schedule: Q01DX005 (ip), vehicle: saline with Tween-80
[6] = dose: 50.0 mg/kg/injection, schedule: Q01DX005 (ip), vehicle: saline with Tween-80
[7] = dose: 100.0 mg/kg/injection, schedule: Q01DX005 (ip), vehicle: saline with Tween-80
[8] = dose: 200.0 mg/kg/injection, schedule: Q01DX005 (ip), vehicle: saline with Tween-80
[9] = dose: 50.0 mg/kg/injection, schedule: Q01DX005 (ip), vehicle: saline
[10] = dose: 100.0 mg/kg/injection, schedule: Q01DX005 (ip), vehicle: saline
[11] = dose: 12.5 mg/kg/injection, schedule: Q01DX009 (ip), vehicle: Klucel (hydroxypropylcellulose) (HPC)
[12] = dose: 25.0 mg/kg/injection, schedule: Q01DX009 (ip), vehicle: Klucel (hydroxypropylcellulose) (HPC)
[13] = dose: 50.0 mg/kg/injection, schedule: Q01DX009 (ip), vehicle: Klucel (hydroxypropylcellulose) (HPC)

## C=CC(=NC(C)(C)C)Nc1ccccc1C(=O)OC
dose: 12.5 mg/kg/injection, schedule: Q01DX009 (ip), vehicle: saline
  T/C: 108 % of control
[1]
  T/C: 107 % of control
dose: 50.0 mg/kg/injection, schedule: Q01DX009 (ip), vehicle: saline with Tween-80
  T/C: 101 % of control
[2]
  T/C: 108 % of control

## COc1ccc2c(c1)CN(Cc1ccccc1)CO2
[3]
  T/C: 104 % of control
[4]
  T/C: 105 % of control
[5]
  T/C: 102 % of control

## CC1(C)c2ccccc2C(=O)c2ccccc21
[6]
  T/C: 103 % of control
[7]
  T/C: 100 % of control
[8]
  T/C: 103 % of control

## CC[N+](C)(CC)C1C(S(=O)(=O)c2ccccc2)CC1(C)C (centres undefined)
dose: 25.0 mg/kg/injection, schedule: Q01DX005 (ip), vehicle: saline
  T/C: 108 % of control
[9]
  T/C: 98 % of control
[10]
  T/C: 99 % of control

## COC(=O)CC1(C(=O)OC)C2CCCN2C2(C#N)c3ccccc3CCC12Br (centres undefined)
dose: 100.0 mg/kg/injection, schedule: Q01DX001 (ip), vehicle: saline
  T/C: 111 % of control
dose: 200.0 mg/kg/injection, schedule: Q01DX001 (ip), vehicle: saline
  T/C: 117 % of control
dose: 400.0 mg/kg/injection, schedule: Q01DX001 (ip), vehicle: saline
  T/C: 104 % of control

## COCN1C(=O)CN=C(c2ccccc2)c2cc(NO)ccc21
[11]
  T/C: 105 % of control
[12]
  T/C: 105 % of control
[13]
  T/C: 100 % of control and 106 % of control

## CC(C)C(NC(=O)C(=O)c1c[nH]c2ccc(Cl)cc12)C(=O)O (centres undefined)
[3]
  T/C: 100 % of control
[4]
  T/C: 91 % of control
[5]
  T/C: 90 % of control

## CCn1c(=NC(=O)c2ccccc2O)ccn1C
dose: 60.0 mg/kg/injection, schedule: Q01DX005 (ip), vehicle: Klucel (hydroxypropylcellulose) (HPC)
  T/C: 95 % of control
dose: 120.0 mg/kg/injection, schedule: Q01DX005 (ip), vehicle: Klucel (hydroxypropylcellulose) (HPC)
  T/C: 90 % of control
dose: 240.0 mg/kg/injection, schedule: Q01DX005 (ip), vehicle: Klucel (hydroxypropylcellulose) (HPC)
  T/C: 88 % of control

## O=C(CCc1ccc(O)cc1)c1c(O)cc(O)cc1O
[6]
  T/C: 107 % of control
dose: 50.0 mg/kg/injection, schedule: Q01DX009 (ip), vehicle: saline + alcohol
  T/C: 112 % of control
[7]
  T/C: 108 % of control
dose: 100.0 mg/kg/injection, schedule: Q01DX009 (ip), vehicle: saline + alcohol
  T/C: 117 % of control
[8]
  T/C: 114 % of control
dose: 200.0 mg/kg/injection, schedule: Q01DX009 (ip), vehicle: saline + alcohol
  T/C: 108 % of control
dose: 400.0 mg/kg/injection, schedule: Q01DX005 (ip), vehicle: saline with Tween-80
  T/C: 114 % of control

## CC(C)(C(=O)O)C(Nc1ncnc2c1ncn2C1OC(CO)C(O)C1O)C(=O)O (centres undefined)
dose: 100.0 mg/kg/injection, schedule: Q04DX003 (ip), vehicle: saline
  T/C: 100 % of control
dose: 200.0 mg/kg/injection, schedule: Q04DX003 (ip), vehicle: saline
  T/C: 106 % of control

## Cc1ccc(C2C(C#N)C(=O)NC(=O)C2C#N)cc1 (centres undefined)
[13]
  T/C: 100 % of control
dose: 100.0 mg/kg/injection, schedule: Q01DX009 (ip), vehicle: Klucel (hydroxypropylcellulose) (HPC)
  T/C: 108 % of control
dose: 200.0 mg/kg/injection, schedule: Q01DX009 (ip), vehicle: Klucel (hydroxypropylcellulose) (HPC)
  T/C: 99 % of control

## O=C1CC2(CC=CCC23OCCO3)CC(CI)O1 (centres undefined)
dose: 2.5 mg/kg/injection, schedule: Q01DX005 (ip), vehicle: acid diluted with saline
  T/C: 106 % of control
dose: 5.0 mg/kg/injection, schedule: Q01DX005 (ip), vehicle: Klucel (hydroxypropylcellulose) (HPC)
  T/C: 100 % of control
dose: 5.0 mg/kg/injection, schedule: Q01DX005 (ip), vehicle: acid diluted with saline
  T/C: 111 % of control
dose: 10.0 mg/kg/injection, schedule: Q01DX005 (ip), vehicle: Klucel (hydroxypropylcellulose) (HPC)
  T/C: 100 % of control
dose: 10.0 mg/kg/injection, schedule: Q01DX005 (ip), vehicle: acid diluted with saline
  T/C: 93 % of control
dose: 20.0 mg/kg/injection, schedule: Q01DX005 (ip), vehicle: Klucel (hydroxypropylcellulose) (HPC)
  T/C: 98 % of control
dose: 20.0 mg/kg/injection, schedule: Q01DX005 (ip), vehicle: acid diluted with saline
  T/C: 100 % of control
dose: 40.0 mg/kg/injection, schedule: Q01DX005 (ip), vehicle: Klucel (hydroxypropylcellulose) (HPC)
  T/C: 103 % of control

## NC(=O)N/N=c1/oc2ccccc2cc1C(N)=O
dose: 100.0 mg/kg/injection, schedule: Q04DX002 (ip), vehicle: saline
  T/C: 98 % of control
dose: 200.0 mg/kg/injection, schedule: Q04DX002 (ip), vehicle: saline
  T/C: 98 % of control
dose: 400.0 mg/kg/injection, schedule: Q04DX002 (ip), vehicle: saline
  T/C: 96 % of control

## Nc1nnc2nc(C3(c4nc5nnc(N)n5[nH]c4=O)Cc4ccccc4C3=O)c(=O)[nH]n12
[6]
  T/C: 91 % of control
[7]
  T/C: 100 % of control
[8]
  T/C: 108 % of control

## NCCCCC(NC(=O)C(N)Cc1cnc[nH]1)C(=O)O (stereo not drawn) (H-His-Lys-OH; configuration not given here)
[9]
  T/C: 99 % of control
[10]
  T/C: 108 % of control
dose: 200.0 mg/kg/injection, schedule: Q01DX005 (ip), vehicle: saline
  T/C: 100 % of control

## COC(=O)C#CC(N)=O
dose: 1.25 mg/kg/injection, schedule: Q01DX009 (ip), vehicle: saline sonified
  T/C: 113 % of control
dose: 1.65 mg/kg/injection, schedule: Q01DX009 (ip), vehicle: saline with Tween-80
  T/C: 118 % of control
dose: 2.5 mg/kg/injection, schedule: Q01DX009 (ip), vehicle: saline with Tween-80
  T/C: 118 % of control
dose: 3.75 mg/kg/injection, schedule: Q01DX009 (ip), vehicle: saline with Tween-80
  T/C: 118 % of control
dose: 5.0 mg/kg/injection, schedule: Q01DX009 (ip), vehicle: saline sonified
  T/C: 122 % of control

## NC(N)=NCCC(=O)c1cnc(N)[nH]1
dose: 8.75 mg/kg/injection, schedule: Q01DX005 (ip), vehicle: Klucel (hydroxypropylcellulose) (HPC)
  T/C: 106 % of control
dose: 17.5 mg/kg/injection, schedule: Q01DX005 (ip), vehicle: Klucel (hydroxypropylcellulose) (HPC)
  T/C: 107 % of control
dose: 35.0 mg/kg/injection, schedule: Q01DX005 (ip), vehicle: Klucel (hydroxypropylcellulose) (HPC)
  T/C: 100 % of control

## CC([NH-])C[NH-].O=S(=O)(O)O.[Pt+2] (centres undefined)
dose: 3.12 mg/kg/injection, schedule: Q04DX002 (ip), vehicle: saline
  T/C: 154 % of control
dose: 12.5 mg/kg/injection, schedule: Q04DX002 (ip), vehicle: saline
  T/C: 90 % of control and 118 % of control

## COC(=O)Nc1cccc(-c2nc3ccc(NC(=O)OC)cc3c(=O)n2-c2ccccc2)c1
dose: 6.25 mg/kg/injection, schedule: Q01DX009 (ip), vehicle: Klucel (hydroxypropylcellulose) (HPC)
  T/C: 111 % of control
dose: 8.0 mg/kg/injection, schedule: Q01DX005 (oral), vehicle: Klucel (hydroxypropylcellulose) (HPC)
  T/C: 109 % of control and 92 % of control
[11]
  T/C: 112 % of control
dose: 16.0 mg/kg/injection, schedule: Q01DX005 (oral), vehicle: Klucel (hydroxypropylcellulose) (HPC)
  T/C: 110 % of control and 111 % of control
dose: 16.0 mg/kg/injection, schedule: Q01DX005 (oral), vehicle: saline
  T/C: 108 % of control
[12]
  T/C: 153 % of control
[1]
  T/C: 110 % of control
dose: 25.0 mg/kg/injection, schedule: Q01DX009 (oral), vehicle: Klucel (hydroxypropylcellulose) (HPC)
  T/C: 114 % of control
dose: 32.0 mg/kg/injection, schedule: Q01DX005 (oral), vehicle: Klucel (hydroxypropylcellulose) (HPC)
  T/C: 112 % of control
dose: 32.0 mg/kg/injection, schedule: Q01DX005 (oral), vehicle: saline
  T/C: 121 % of control
[2]
  T/C: 236 % of control
dose: 50.0 mg/kg/injection, schedule: Q01DX009 (oral), vehicle: Klucel (hydroxypropylcellulose) (HPC)
  T/C: 118 % of control
dose: 64.0 mg/kg/injection, schedule: Q01DX005 (oral), vehicle: Klucel (hydroxypropylcellulose) (HPC)
  T/C: 102 % of control
dose: 100.0 mg/kg/injection, schedule: Q01DX009 (ip), vehicle: saline
  T/C: 202 % of control and 236 % of control
dose: 128.0 mg/kg/injection, schedule: Q01DX005 (oral), vehicle: Klucel (hydroxypropylcellulose) (HPC)
  T/C: 102 % of control
dose: 128.0 mg/kg/injection, schedule: Q01DX005 (oral), vehicle: saline
  T/C: 171 % of control
dose: 150.0 mg/kg/injection, schedule: Q01DX009 (ip), vehicle: saline
  T/C: 236 % of control
dose: 200.0 mg/kg/injection, schedule: Q01DX009 (oral), vehicle: Klucel (hydroxypropylcellulose) (HPC)
  T/C: 181 % of control
dose: 400.0 mg/kg/injection, schedule: Q01DX009 (oral), vehicle: Klucel (hydroxypropylcellulose) (HPC)
  T/C: 183 % of control
dose: 800.0 mg/kg/injection, schedule: Q01DX009 (oral), vehicle: Klucel (hydroxypropylcellulose) (HPC)
  T/C: 205 % of control
